Data set [1] in a line: (§1) Cytotoxicity against human PANC1 cells assessed as reduction in cell viability after 24 hrs by MTT reduction assay. In kind it is functional, cell-based. To be noted: PANC-1, 24 h.
The subject of data set [2] is PANC-1. The description is as §1. In kind it is functional, cell-based.
The test system of data set [3] is HaCaT. Description: Cytotoxicity against human HaCaT cells assessed as reduction in cell viability after 24 hrs by MTT reduction assay. In kind it is cell-based. Background: Formazan colour is commonly taken as a measure of viable cells.
Data set [4] is described as follows: Selectivity ratio of IC50 for human HaCaT cells to IC50 for human PANC1 cells. In kind it is ADME, cell-based. To be noted: HaCaT cells versus PANC1 cells, read-out: Ratio IC50.
The subject of data set [5] is PANC-1. Description: Cytoprotective activity in 1 hr GSH-pretreated human PANC1 cells assessed as increase in cell viability at 10 to 100 uM after 24 hrs by MTT reduction assay. In kind it is functional, cell-based.
A short description of data set [6]: Antiproliferative activity against human PANC1 cells assessed as reduction in colonies at 15 uM after 15 days by colony assay. In kind it is functional, PANC-1. Further details: scale not given: the % may be the effect or the level left.
The nature of data set [7]: Antiproliferative activity against human PANC1 cells assessed as reduction in colonies at 30 uM after 15 days by colony assay. In kind it is functional, PANC-1. Further details: scale not given: the % may be the effect or the level left.
Data set [8] is described as follows: Antiproliferative activity against human PANC1 cells assessed as reduction in colonies after 15 days by colony assay. In kind it is functional, cell-based. To be noted: PANC-1, 360 h.
Data set [9] deals with PANC-1. In words: Reduction in cyclin D1 protein level in human PANC1 cells at 30 to 60 uM after 24 hrs by Western blot analysis. In kind it is functional, cell-based. Background: A western blot detects proteins with antibodies after separation by electrophoresis.
For data set [10], the system named is PANC-1. In words: Reduction in c-Myc protein level in human PANC1 cells at 30 to 60 uM after 24 hrs by Western blot analysis. In kind it is functional, cell-based.
For data set [11], the system named is PANC-1. Description: Reduction in p-RB at Ser795 protein level in human PANC1 cells at 30 to 60 uM after 24 hrs by Western blot analysis. In kind it is functional, cell-based.
Data set [12] concerns PANC-1. In words: Reduction in AXL protein level in human PANC1 cells at 30 to 60 uM after 24 hrs by Western blot analysis. In kind it is functional, cell-based.
The target of data set [13] is Tyrosine-protein kinase receptor UFO (Homo sapiens) (UniProt P30530). Description: Effect on AXL in human PANC1 cells assessed as increase in p-ERK at Thr202/Tyr 204 protein level at 30 to 60 uM after 24 hrs by Western blot analysis. In kind it is cell-based. To be noted: PANC-1.
Chain of Tyrosine-protein kinase receptor UFO (Homo sapiens) (P30530 whole entry): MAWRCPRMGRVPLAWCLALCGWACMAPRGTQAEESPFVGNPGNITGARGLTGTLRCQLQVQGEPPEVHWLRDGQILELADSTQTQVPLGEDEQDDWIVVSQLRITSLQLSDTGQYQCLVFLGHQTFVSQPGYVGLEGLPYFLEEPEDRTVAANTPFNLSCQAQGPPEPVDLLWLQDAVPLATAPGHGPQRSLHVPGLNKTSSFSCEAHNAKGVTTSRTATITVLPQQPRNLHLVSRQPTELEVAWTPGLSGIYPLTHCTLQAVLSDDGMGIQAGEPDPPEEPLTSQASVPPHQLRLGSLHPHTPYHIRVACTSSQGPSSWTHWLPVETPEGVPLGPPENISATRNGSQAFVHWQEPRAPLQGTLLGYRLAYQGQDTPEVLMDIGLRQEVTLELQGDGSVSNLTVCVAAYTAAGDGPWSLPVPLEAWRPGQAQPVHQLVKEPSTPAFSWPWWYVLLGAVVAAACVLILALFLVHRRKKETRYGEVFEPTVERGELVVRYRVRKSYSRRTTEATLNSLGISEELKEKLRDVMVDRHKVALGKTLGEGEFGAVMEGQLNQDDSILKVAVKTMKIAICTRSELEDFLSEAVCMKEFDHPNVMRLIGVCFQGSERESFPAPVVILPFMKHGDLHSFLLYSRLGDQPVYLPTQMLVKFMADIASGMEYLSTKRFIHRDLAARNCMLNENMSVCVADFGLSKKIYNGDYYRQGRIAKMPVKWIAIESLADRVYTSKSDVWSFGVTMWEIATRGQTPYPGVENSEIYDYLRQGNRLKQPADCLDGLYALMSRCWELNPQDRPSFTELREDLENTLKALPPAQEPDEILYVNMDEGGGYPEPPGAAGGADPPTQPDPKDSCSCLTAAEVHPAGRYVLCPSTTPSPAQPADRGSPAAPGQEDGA
The subject of data set [14] is PANC-1. Description: Induction of apoptosis in human PANC1 cells assessed as increase in BAX/BCL-2 ratio at 30 to 60 uM after 24 hrs by Western blot analysis. In kind it is functional, cell-based.
In data set [15] the test system is PANC-1. Description: Induction of apoptosis in human PANC1 cells assessed as reduction in pro-caspase-3 level at 30 to 60 uM after 24 hrs by Western blot analysis. In kind it is functional, cell-based.
For data set [16], the system named is PANC-1. Description: Induction of apoptosis in human PANC1 cells assessed as increase in cleaved PARP-1 level at 30 to 60 uM after 24 hrs by Western blot analysis. In kind it is functional, cell-based.
Data set [17] concerns PANC-1. In words: Induction of intracellular ROS production in human PANC1 cells at 1.5 to 3 uM after 1 hr using DCFH-DA by flow cytometry. In kind it is functional, cell-based.
Data set [18] can be described thus: Chemical reactivity under non-physiological condition at 25 mM using gluthatione as thiol nucleophile assessed as conjugate addition of GSH to compound after 24 hrs by 1H NMR spectroscopy. In kind it is physicochemical. To be noted: 25000 µM.
The test system of data set [19] is PANC-1. In words: Cytotoxicity against human PANC1 cells assessed as reduction in cell viability at 10 to 100 uM after 24 hrs by MTT reduction assay in presence of GSH. In kind it is functional, cell-based.
Data set [20] in a line: Antiproliferative activity against human PANC1 cells assessed as reduction in colonies at 0.75 uM after 15 days by colony assay. In kind it is functional, PANC-1. Further details: scale not given: the % may be the effect or the level left.
Data set [21] in a line: Antiproliferative activity against human PANC1 cells assessed as reduction in colonies at 1.5 uM after 15 days by colony assay. In kind it is functional, PANC-1. Further details: scale not given: the % may be the effect or the level left.
For data set [22], the system named is PANC-1. Description: Reduction in cyclin D1 protein level in human PANC1 cells at 1.5 to 3 uM after 24 hrs by Western blot analysis. In kind it is functional, cell-based.
In data set [23] the test system is PANC-1. In words: Reduction in c-Myc protein level in human PANC1 cells at 1.5 to 3 uM after 24 hrs by Western blot analysis. In kind it is functional, cell-based.
The subject of data set [24] is PANC-1. Description: Reduction in p-RB at Ser795 protein level in human PANC1 cells at 1.5 to 3 uM after 24 hrs by Western blot analysis. In kind it is functional, cell-based.
In data set [25] the test system is PANC-1. Description: Reduction in AXL protein level in human PANC1 cells at 1.5 to 3 uM after 24 hrs by Western blot analysis. In kind it is functional, cell-based.
Data set [26] deals with Tyrosine-protein kinase receptor UFO (Homo sapiens) (UniProt P30530). In words: Inhibition of AXL in human PANC1 cells assessed as inhibition of ERK phosphorylation at Thr202/Tyr 204 at 1.5 to 3 uM after 24 hrs by Western blot analysis. In kind it is cell-based. To be noted: PANC-1.
For data set [27], the system named is PANC-1. In words: Induction of apoptosis in human PANC1 cells assessed as increase in BAX/BCL-2 ratio at 1.5 to 3 uM after 24 hrs by Western blot analysis. In kind it is functional, cell-based.
Data set [28] relates to PANC-1. Description: Induction of apoptosis in human PANC1 cells assessed as reduction in pro-caspase-3 level at 1.5 to 3 uM after 24 hrs by Western blot analysis. In kind it is functional, cell-based.
Data set [29] relates to PANC-1. In words: Induction of apoptosis in human PANC1 cells assessed as increase in cleaved PARP-1 level at 1.5 to 3 uM after 24 hrs by Western blot analysis. In kind it is functional, cell-based.
The subject of data set [30] is PANC-1. Description: Induction of intracellular ROS production in human PANC1 cells at 25 to 100 uM after 1 hr using DCFH-DA by flow cytometry. In kind it is functional, cell-based. On the technique in general: Flow cytometry measures light scatter and fluorescence of single cells or particles in a stream.
Data set [31] addresses Tyrosine-protein kinase receptor UFO (Homo sapiens) (UniProt P30530). Description: Inhibition of AXL in human PANC1 cells assessed as reduction in HIF-1alpha expression at 1.5 to 3 uM after 24 hrs by Western blot analysis. In kind it is cell-based. To be noted: PANC-1.
The target is the same in data set [32]. Description: Inhibition of AXL in human PANC1 cells assessed as reduction in VEGF level at 1.5 to 3 uM after 24 hrs by Western blot analysis. In kind it is cell-based. To be noted: PANC-1.

The results in this text go back to ChEMBL document CHEMBL3351649, “A new goniothalamin N-acylated aza-derivative strongly downregulates mediators of signaling transduction associated with pancreatic cancer aggressiveness” (Eur J Med Chem, 2014).

Each structure is given as a SMILES string. The source made the active and inactive calls. The calls are words filed in the database; no cut-off is given here.

In the case of `O=C1C=CCC(/C=C/c2ccccc2)N1C(=O)/C=C/c1ccccc1` (configuration not stated), in [1], the half-maximal inhibitory concentration (IC50) (usually the concentration at which inhibition is half-maximal) came to 16.3 µM.

`O=C1C=CC[C@H](/C=C/c2ccccc2)O1` [GONIOTHALAMIN]: the results for the concentration for half-maximal inhibition (IC50) in data set [1], in [3] and in [8] were 65 µM, 28.6 µM and 65 µM, respectively. Moreover, the Activity entry in data set [2] was “Dose-dependent effect”; in [6], 50%; in [7], 70%; in data set [18], “Active”. Moreover, the selectivity ratio in data set [4] amounted to 0.44. Besides, the result in data set [5], in data set [9], in data set [11], in data set [12], in [13] and in data set [14] was Active. Besides, the outcome in data set [15], in [16] and in data set [17] was Active. Besides, the result in [10] was inactive.

As for `COc1cc(/C=C/C(=O)N2C(=O)C=CCC2/C=C/c2ccccc2)ccc1O` (configuration not stated), in data set [1], the IC50 amounted to 15.6 µM.

Regarding `COc1cc(/C=C/C(=O)N2CCC=CC2=O)cc(OC)c1OC` [PIPLARTINE], the values for the concentration for half-maximal inhibition (IC50) in data set [1] and in [3] were 3.2 µM and 16 µM, respectively. The selectivity ratio in data set [4] came to 5.

For the compound `CC(=O)N1C(=O)C=CCC1/C=C/c1ccccc1` (configuration not stated), the IC50 in data set [1] was determined as 42.3 µM. In addition, the Activity entry in data set [2] is “Dose-dependent effect”.

As to `O=C1C=CCC(/C=C/c2ccccc2)N1C(=O)CCc1ccc(O)c(O)c1` (configuration not stated), in [1], the IC50 was determined as 6.8 µM.

For the compound `O=C1C=CCC(/C=C/c2ccccc2)N1C(=O)/C=C/c1ccc(O)c(O)c1` (configuration not stated), the IC50 in data set [1] turned out to be 5.7 µM.

Turning to `COc1cc(/C=C/C(=O)N2C(=O)C=CCC2/C=C/c2ccccc2)cc(OC)c1OC` (configuration not stated), the results for the concentration for half-maximal inhibition (IC50) in data set [1], in [3] and in data set [8] were 2.7 µM, 8.5 µM and 2.7 µM, respectively. Besides, the selectivity ratio in data set [4] was 3.14. The Activity entry in [19] was “Dose-dependent effect”; in data set [20], 40%; in data set [21], 90%; in data set [18], “Active”. In addition, the result in data set [22], in data set [23], in data set [24], in data set [25], in data set [27] and in [28] was Active. Besides, the outcome in [29] and in data set [30] was Active. The inhibition result in data set [26], in data set [31] and in [32] was “Active” throughout.

Regarding `O=C1C=CCC(/C=C/c2ccccc2)N1` (configuration not stated), in data set [1], the IC50 is more than 100 µM. Besides, the Activity entry in [18] was “Not Active”.

With `C/C=C/C(=O)N1C(=O)C=CCC1/C=C/c1ccccc1` (configuration not stated), in data set [1], the half-maximal inhibitory concentration (IC50) was 4.2 µM.

With `COC(=O)N1C(=O)C=CCC1/C=C/c1ccccc1` (configuration not stated), the half-inhibitory concentration (IC50) in [1] is 53.7 µM. Moreover, the Activity result in data set [2] is “Dose-dependent effect”.

Consider `C=CC(=O)N1C(=O)C=CCC1/C=C/c1ccccc1` (configuration not stated), for which the IC50 in data set [1] turned out to be 8.1 µM.
